In patent US20220402925A1, “COMPOUNDS AND METHODS FOR THE TREATMENT OF CYSTIC FIBROSIS” (Flatley Discovery Lab, LLC, priority 2019, published 2022):

target: T1, F508del CFTR (Homo sapiens, UniProt P13569, DEL508-508); assay: Equivalent current assay in primary CF airway epithelial cells (Corrector Activity, NAUC normalized to 3 μM VX809); assay type: cell-based; details: NAUC as % of positive control (VX-809)
T1 construct: Primary CF airway epithelial cells were obtained from the UNC Cystic Fibrosis Tissue Procurement and Cell Culture Core; host or cells: primary CF airway epithelial cells
In short: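 Differentiated primary CF airway cells treated basolaterally 24 h at 37° C with compound (0.1% DMSO). Equivalent current recorded after 5 μM benzamil, stimulation with 10 μM forskolin plus 1 μM VX-770 or 3 μM FDL176, and block by 20 μM CFTR-172; vehicle-subtracted AUC normalized to 3 μM VX809; EC50 from sigmoid fit, Hill slope 1.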

T1 sequence (P13569 with tags, fused parts or gaps DEL508-508): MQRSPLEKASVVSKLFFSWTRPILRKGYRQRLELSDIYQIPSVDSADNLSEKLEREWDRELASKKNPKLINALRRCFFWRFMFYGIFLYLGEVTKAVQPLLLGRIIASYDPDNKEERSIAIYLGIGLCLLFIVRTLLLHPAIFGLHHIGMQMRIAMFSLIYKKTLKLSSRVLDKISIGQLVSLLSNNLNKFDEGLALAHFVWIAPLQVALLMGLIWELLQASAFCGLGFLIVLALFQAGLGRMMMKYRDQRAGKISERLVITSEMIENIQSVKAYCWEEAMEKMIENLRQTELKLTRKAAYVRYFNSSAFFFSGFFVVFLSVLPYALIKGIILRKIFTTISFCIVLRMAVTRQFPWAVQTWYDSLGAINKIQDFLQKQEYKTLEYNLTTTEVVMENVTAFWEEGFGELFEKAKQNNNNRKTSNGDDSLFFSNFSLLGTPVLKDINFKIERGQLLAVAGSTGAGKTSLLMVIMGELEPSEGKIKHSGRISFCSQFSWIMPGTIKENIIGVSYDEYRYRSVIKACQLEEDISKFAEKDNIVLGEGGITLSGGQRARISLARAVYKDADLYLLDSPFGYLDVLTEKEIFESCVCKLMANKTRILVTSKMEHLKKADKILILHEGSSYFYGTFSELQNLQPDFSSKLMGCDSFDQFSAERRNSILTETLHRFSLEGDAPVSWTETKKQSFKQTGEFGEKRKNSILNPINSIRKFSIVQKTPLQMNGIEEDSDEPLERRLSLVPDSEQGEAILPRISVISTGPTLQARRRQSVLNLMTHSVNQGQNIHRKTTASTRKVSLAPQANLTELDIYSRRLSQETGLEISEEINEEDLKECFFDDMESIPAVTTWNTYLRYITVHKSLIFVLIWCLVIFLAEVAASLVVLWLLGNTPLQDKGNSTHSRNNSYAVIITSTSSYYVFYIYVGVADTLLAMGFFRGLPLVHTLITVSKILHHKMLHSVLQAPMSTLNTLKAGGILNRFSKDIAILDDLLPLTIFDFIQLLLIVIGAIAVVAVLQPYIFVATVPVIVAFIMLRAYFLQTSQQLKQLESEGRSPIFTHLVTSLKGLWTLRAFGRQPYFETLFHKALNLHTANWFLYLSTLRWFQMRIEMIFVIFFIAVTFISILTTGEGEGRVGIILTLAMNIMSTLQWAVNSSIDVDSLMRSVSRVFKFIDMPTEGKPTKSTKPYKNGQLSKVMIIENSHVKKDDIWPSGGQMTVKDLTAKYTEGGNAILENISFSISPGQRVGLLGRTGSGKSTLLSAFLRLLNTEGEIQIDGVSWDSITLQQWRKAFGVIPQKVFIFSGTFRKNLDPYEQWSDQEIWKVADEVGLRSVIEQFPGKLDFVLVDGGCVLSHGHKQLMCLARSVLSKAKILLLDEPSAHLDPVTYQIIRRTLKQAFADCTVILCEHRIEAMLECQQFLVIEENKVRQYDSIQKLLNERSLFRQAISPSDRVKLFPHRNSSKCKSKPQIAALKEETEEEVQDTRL

Structure (SMILES) | Corr Activity (NAUC)
CCN(C(=O)Cn1nc(-c2cc(C)cc(OC)c2)c2[nH]cnc2c1=O)c1ccc2c(c1)OC(F)(F)O2 [Example 272] | + (NAUC<40% of positive control)
CCN(C(=O)Cn1nc(-c2cc(Cl)cc(OCc3ccccc3)c2)c2[nH]cnc2c1=O)c1ccc2c(c1)OC(F)(F)O2 [Example 273] | +++ (NAUC>70% of positive control)
CCN(C(=O)Cn1nc(-c2cc(OC)cc(OC(F)(F)F)c2)c2[nH]cnc2c1=O)c1ccc2c(c1)OC(F)(F)O2 [Example 274] | + (NAUC<40% of positive control)
CCN(C(=O)Cn1nc(-c2cc(Cl)cc(OCCOC)c2)c2[nH]cnc2c1=O)c1ccc2c(c1)OC(F)(F)O2 [Example 276] | +++ (NAUC>70% of positive control)
CCN(C(=O)Cn1nc(-c2cc(Cl)cc(N3CCCC3)c2)c2[nH]cnc2c1=O)c1ccc2c(c1)OC(F)(F)O2 [Example 277] | +++ (NAUC>70% of positive control)
CCN(C(=O)Cn1nc(-c2cc(Cl)cc(C(F)(F)F)c2)c2[nH]cnc2c1=O)c1ccc2c(c1)OC(F)(F)O2 [Example 278] | +++ (NAUC>70% of positive control)
CCN(C(=O)Cn1nc(-c2cc(C)cc(C(F)(F)F)c2)c2[nH]cnc2c1=O)c1ccc2c(c1)OC(F)(F)O2 [Example 279] | ++ (NAUC 70-40% of positive control)
CCN(C(=O)Cn1nc(-c2cc(C(C)(C)C)cc(C(C)(C)C)c2)c2[nH]cnc2c1=O)c1ccc2c(c1)OC(F)(F)O2 [Example 280] | + (NAUC<40% of positive control)
CCN(C(=O)Cn1nc(-c2cc(C#N)cc(C(F)(F)F)c2)c2[nH]cnc2c1=O)c1ccc2c(c1)OC(F)(F)O2 [Example 281] | +++ (NAUC>70% of positive control)
CCN(C(=O)Cn1nc(-c2cc(Cl)cc(CO)c2)c2[nH]cnc2c1=O)c1ccc2c(c1)OC(F)(F)O2 [Example 282] | + (NAUC<40% of positive control)
CCN(C(=O)Cn1nc(-c2cc(O)cc(OC(F)(F)F)c2)c2[nH]cnc2c1=O)c1ccc2c(c1)OC(F)(F)O2 [Example 284] | + (NAUC<40% of positive control)
CCN(C(=O)Cn1nc(-c2cc(C#N)cc(OC(F)(F)F)c2)c2[nH]cnc2c1=O)c1ccc2c(c1)OC(F)(F)O2 [Example 285] | +++ (NAUC>70% of positive control)
CCN(C(=O)Cn1nc(-c2cc(C#N)cc(OC)c2)c2[nH]cnc2c1=O)c1ccc2c(c1)OC(F)(F)O2 [Example 286] | +++ (NAUC>70% of positive control)
CCN(C(=O)Cn1nc(-c2ccc3cc(OC)ccc3c2)c2[nH]cnc2c1=O)c1ccc2c(c1)OC(F)(F)O2 [Example 289] | +++ (NAUC>70% of positive control)
CCN(C(=O)Cn1nc(-c2ccc3c(ccn3C)c2)c2[nH]cnc2c1=O)c1ccc2c(c1)OC(F)(F)O2 [Example 290] | + (NAUC<40% of positive control)
CCN(C(=O)Cn1nc(-c2ccc3ccccc3c2)c2[nH]cnc2c1=O)c1ccc2c(c1)OC(F)(F)O2 [Example 292] | + (NAUC<40% of positive control)
CCN(C(=O)Cn1nc(-c2ccc3c(c2)C(C)(C)c2ccccc2-3)c2[nH]cnc2c1=O)c1ccc2c(c1)OC(F)(F)O2 [Example 293] | + (NAUC<40% of positive control)
CCN(C(=O)Cn1nc(-c2ccc3c(c2)OCCO3)c2[nH]cnc2c1=O)c1ccc2c(c1)OC(F)(F)O2 [Example 294] | + (NAUC<40% of positive control)
CCN(C(=O)Cn1nc(-c2ccc3[nH]c4ccccc4c3c2)c2[nH]cnc2c1=O)c1ccc2c(c1)OC(F)(F)O2 [Example 295] | + (NAUC<40% of positive control)
CCN(C(=O)Cn1nc(-c2ccc3c(ccn3Cc3ccccc3)c2)c2[nH]cnc2c1=O)c1ccc2c(c1)OC(F)(F)O2 [Example 296] | + (NAUC<40% of positive control)
CCN(C(=O)Cn1nc(-c2ccc3ocnc3c2)c2[nH]cnc2c1=O)c1ccc2c(c1)OC(F)(F)O2 [Example 303] | + (NAUC<40% of positive control)
CCN(C(=O)Cn1nc(-c2ccc3c(cnn3C(C)C)c2)c2[nH]cnc2c1=O)c1ccc2c(c1)OC(F)(F)O2 [Example 310] | + (NAUC<40% of positive control)
CCN(C(=O)Cn1nc(-c2ccc3c(c2)OC(F)(F)O3)c2[nH]cnc2c1=O)c1ccc2c(c1)OC(F)(F)O2 [Example 311] | + (NAUC<40% of positive control)
CCN(C(=O)Cn1nc(-c2ccc3c(c2)ncn3-c2ccccc2)c2[nH]cnc2c1=O)c1ccc2c(c1)OC(F)(F)O2 [Example 313] | ++ (NAUC 70-40% of positive control)
CCN(C(=O)Cn1nc(-c2ccc(C(=O)OC)c(Cl)c2)c2[nH]cnc2c1=O)c1ccc2c(c1)OC(F)(F)O2 [Example 316] | ++ (NAUC 70-40% of positive control)
CCN(C(=O)Cn1nc(-c2ccc(CC#N)c(F)c2)c2[nH]cnc2c1=O)c1ccc2c(c1)OC(F)(F)O2 [Example 317] | + (NAUC<40% of positive control)

Structure (SMILES) | Corr Activity (NAUC)
CCN(C(=O)Cn1nc(-c2ccc(-c3ccccc3)c(F)c2)c2[nH]cnc2c1=O)c1ccc2c(c1)OC(F)(F)O2 [Example 319] | + (NAUC<40% of positive control)
CCN(C(=O)Cn1nc(-c2ccc(Cl)c(Cl)c2)c2[nH]cnc2c1=O)c1ccc2c(c1)OC(F)(F)O2 [Example 322] | +++ (NAUC>70% of positive control)
CCN(C(=O)Cn1nc(-c2ccc(Cl)c(C#N)c2)c2[nH]cnc2c1=O)c1ccc2c(c1)OC(F)(F)O2 [Example 325] | +++ (NAUC>70% of positive control)
CCN(C(=O)Cn1nc(-c2ccc(OC(C)C)c(Cl)c2)c2[nH]cnc2c1=O)c1ccc2c(c1)OC(F)(F)O2 [Example 326] | +++ (NAUC>70% of positive control)
CCN(C(=O)Cn1nc(-c2ccc(O)c(Cl)c2)c2[nH]cnc2c1=O)c1ccc2c(c1)OC(F)(F)O2 [Example 327] | + (NAUC<40% of positive control)
CCN(C(=O)Cn1nc(-c2ccc(C(F)(F)F)c(Cl)c2)c2[nH]cnc2c1=O)c1ccc2c(c1)OC(F)(F)O2 [Example 328] | + (NAUC<40% of positive control)
CCN(C(=O)Cn1nc(-c2ccc(Cl)c(OC)c2)c2[nH]cnc2c1=O)c1ccc2c(c1)OC(F)(F)O2 [Example 329] | + (NAUC<40% of positive control)
CCN(C(=O)Cn1nc(-c2ccc(C(=O)NCc3ccccc3)c(Cl)c2)c2[nH]cnc2c1=O)c1ccc2c(c1)OC(F)(F)O2 [Example 330] | + (NAUC<40% of positive control)
CCN(C(=O)Cn1nc(-c2ccc(C#N)c(Cl)c2)c2[nH]cnc2c1=O)c1ccc2c(c1)OC(F)(F)O2 [Example 336] | ++ (NAUC 70-40% of positive control)
CCN(C(=O)Cn1nc(-c2ccc(C)c(CO)c2)c2[nH]cnc2c1=O)c1ccc2c(c1)OC(F)(F)O2 [Example 337] | + (NAUC<40% of positive control)
CCN(C(=O)Cn1nc(-c2ccc(OC)c(C(F)(F)F)c2)c2[nH]cnc2c1=O)c1ccc2c(c1)OC(F)(F)O2 [Example 338] | ++ (NAUC 70-40% of positive control)
CCN(C(=O)Cn1nc(-c2ccc(OCC(F)(F)F)c(F)c2)c2[nH]cnc2c1=O)c1ccc2c(c1)OC(F)(F)O2 [Example 339] | ++ (NAUC 70-40% of positive control)
CCN(C(=O)Cn1nc(-c2ccc(C(F)(F)F)c(C(F)(F)F)c2)c2[nH]cnc2c1=O)c1ccc2c(c1)OC(F)(F)O2 [Example 345] | + (NAUC<40% of positive control)
CCN(C(=O)Cn1nc(-c2ccc(OC)c(C#N)c2)c2[nH]cnc2c1=O)c1ccc2c(c1)OC(F)(F)O2 [Example 346] | +++ (NAUC>70% of positive control)
CCN(C(=O)Cn1nc(-c2ccc(OCC3CC3)c(Cl)c2)c2[nH]cnc2c1=O)c1ccc2c(c1)OC(F)(F)O2 [Example 347] | +++ (NAUC>70% of positive control)
CCN(C(=O)Cn1nc(-c2ccc(OC)c(S(=O)(=O)N3CCCC3)c2)c2[nH]cnc2c1=O)c1ccc2c(c1)OC(F)(F)O2 [Example 350] | + (NAUC<40% of positive control)
CCN(C(=O)Cn1nc(-c2ccc(C#N)c(C(F)(F)F)c2)c2[nH]cnc2c1=O)c1ccc2c(c1)OC(F)(F)O2 [Example 351] | + (NAUC<40% of positive control)
CCN(C(=O)Cn1nc(-c2ccc(N3CCCC3)c(C#N)c2)c2[nH]cnc2c1=O)c1ccc2c(c1)OC(F)(F)O2 [Example 352] | +++ (NAUC>70% of positive control)
CCN(C(=O)Cn1nc(-c2ccc(S(=O)(=O)NC(C)(C)C)c(C)c2)c2[nH]cnc2c1=O)c1ccc2c(c1)OC(F)(F)O2 [Example 355] | + (NAUC<40% of positive control)
CCN(C(=O)Cn1nc(-c2ccc(CC#N)c(OC)c2)c2[nH]cnc2c1=O)c1ccc2c(c1)OC(F)(F)O2 [Example 357] | + (NAUC<40% of positive control)
CCN(C(=O)Cn1nc(-c2ccc(CS(C)(=O)=O)c(Cl)c2)c2[nH]cnc2c1=O)c1ccc2c(c1)OC(F)(F)O2 [Example 363] | + (NAUC<40% of positive control)
CCN(C(=O)Cn1nc(-c2ccc(OC(F)(F)F)c(C#N)c2)c2[nH]cnc2c1=O)c1ccc2c(c1)OC(F)(F)O2 [Example 365] | +++ (NAUC>70% of positive control)
N#Cc1cc(F)cc(-c2nn(CC(=O)N(c3ccc4c(c3)OC(F)(F)O4)C3CC3)c(=O)c3nc[nH]c23)c1 [Example 368] | +++ (NAUC>70% of positive control)
N#Cc1cc(Cl)cc(-c2nn(CC(=O)N(c3ccc4c(c3)OC(F)(F)O4)C3CC3)c(=O)c3nc[nH]c23)c1 [Example 369] | +++ (NAUC>70% of positive control)
O=C(Cn1nc(-c2cccc(F)c2)c2[nH]cnc2c1=O)N(c1ccc2c(c1)OC(F)(F)O2)C1CC1 [Example 370] | + (NAUC<40% of positive control)
O=C(Cn1nc(-c2cccc(Cl)c2)c2[nH]cnc2c1=O)N(c1ccc2c(c1)OC(F)(F)O2)C1CC1 [Example 371] | ++ (NAUC 70-40% of positive control)
